Consider three molecules from US9770436B2, “Polymorphs of azabicyclohexane” (EUTHYMICS BIOSCIENCE, INC., priority 2004, dated 2017).

The conditions of data set [1]: (+) isomeric form; cited from earlier work.
The nature of data set [2]: Informal storage stability of the Example 1 hydrochloride salt (50% by weight mixture of polymorph forms A and B) in desiccators; polymorph content by XRPD and Raman. The settings on record: started as 50% (by weight) A / 50% B, XRPD. Format: physicochemical. Here is the method: The X-ray powder diffraction pattern (XRPD) analyses of polymorph forms A, B and C were performed with a Shimadzu XRD-6000 X-ray powder diffractometer using Cu Ka radiation. In this procedure the compound as a hydrochloride salt was loaded onto the machine as a crystalline powder. The instrument was equipped with a long fine focus X-ray tube. The tube voltage and amperage were set to 40 kV and 40 mA, respectively. The divergence and scattering slits were set at 1° and the receiving slit was set at 0.15 mm. Diffracted radiation was detected by a Nal scintillation detector. A theta-two theta continuous scan at 3°/min (0.4 sec/0.02° step) from 2.5 to 40° 2θ was used. A silicon standard was analyzed to check the instrument alignment. Data were collected and analyzed using XRD-6000 v. 4.1.
Briefly, Raman spectra were obtained using a FT-Raman 960 (or 860) spectrometer (Thermo Nicolet) interfaced to an 860 FT-IR. This spectrometer uses an excitation wavelength of 1064 nm. Approximately 0.912 W of Nd:YV04 laser power was used to irradiate the samples. The Raman spectra were measured with an indium gallium arsenide (InGaAs) detector. The samples were pressed into pellets for analysis. A total of 128 sample scans were collected from 3600 or 3700-98 cm^−1 at a spectral resolution of about (±) 4 cm^−1, using Happ-Genzel apodization. Wavelength calibration was performed using sulfur and cyclohexane. The Raman spectra peak positions given below in wavenumbers (cm^−1) for the purified polymorph forms A, B and C of the hydrochloride salt of (+)-1-(3,4-dichlorophenyl)-3-azabicyclo[3.1.0]hexane are subject to an error of about (±) 4 cm^−1.
Duplicate samples of the hydrochloride salt of (+)-1-(3,4dichlorophenyl)-3-azabicyclo[3.1.0] hexane produced in Example 1 and containing a 50% (by weight) mixture of polymorph form A and polymorph form B were placed on informal stability to test storage in desiccators placed at ambient temperature and at 50° C. in a programmable heating bloc.

A short description of data set [3]: Thermodynamic stability of the crystalline polymorph forms. Format: physicochemical. The settings on record: pure crystalline structure, acid addition salt.
Where [4] appears, read: 50° C. programmable heating block, after 17 days of storage.
Setting [5] is: desiccator, ambient temperature, after 1 week, confirmed by Raman.

In the case of `Clc1ccc(C23CNCC2C3)cc1Cl` (single isomer, unassigned; (+)) [compound of formula I, (+)-1-(3,4-dichlorophenyl)-3-azabicyclo[3.1.0]hexane], the anti-depressive activity result in data set [1] is “potent anti-depressive activity”.

As to `Cl.Clc1ccc(C23CNCC2C3)cc1Cl` (stereo not drawn) [Example 1, hydrochloride salt of (+)-1-(3,4dichlorophenyl)-3-azabicyclo[3.1.0] hexane], in data set [2] (setting [4]), the “content of polymorph form A after storage” value is reported as “about 50 % (by weight)” and the “content of polymorph form C after storage” value is recorded as 50 % (by weight). In data set [2] (setting [5]), the “content of polymorph form A after storage” value is 40 % (by weight) and the “content of polymorph form B after storage” value is recorded as 60 % (by weight).

As for `Cl.Clc1ccc(C23CNCC2C3)cc1Cl` (stereo not drawn) [polymorph form A, hydrochloride salt of (+)-1-(3,4-dichlorophenyl)-3-azabicyclo[3.1.0]hexane], the “thermodynamic stability of the polymorph form” value in data set [3] is “thermodynamically stable”.
